# Experimental data as given in PubChem BioAssay (NCI).
# “And” between values parts separate entries of the source, which are not always exact repeats. Identical values can stand only once.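 Cells were grown in 96-well plates and exposed to each compound for 48 hours at five concentrations; endpoints were interpolated linearly between bracketing concentrations, or set to the highest concentration if not reached. The concentration for 50% growth inhibition is given as GI50. TGI denotes the concentration required for complete inhibition of growth.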
# Tests used:
# Assay in all cases: inhibition of tumour cell growth, NCI panel, 48 h
# A498 renal = tested on: A498 renal
# A549 NSCLC = tested on: A549 NSCLC
# ACHN renal = tested on: ACHN renal
# CAKI-1 renal = tested on: CAKI-1 renal
# HCC-2998 colon = tested on: HCC-2998 colon
# HCT-116 colon = tested on: HCT-116 colon
# HOP-62 NSCLC = tested on: HOP-62 NSCLC
# IGROV1 ovarian = tested on: IGROV1 ovarian
# NCI-H226 lung = tested on: NCI-H226 lung
# U251 CNS = tested on: U251 CNS
Structure (SMILES),TGI (A498 renal),TGI (A549 NSCLC),TGI (ACHN renal) [µM],TGI (CAKI-1 renal) [µM],TGI (HCC-2998 colon),TGI (HCT-116 colon),TGI (HOP-62 NSCLC),TGI (IGROV1 ovarian) [µM],TGI (NCI-H226 lung) [µM],TGI (U251 CNS),GI50 (A498 renal) [µM],GI50 (A549 NSCLC),GI50 (CAKI-1 renal),GI50 (HCC-2998 colon) [µM],GI50 (HCT-116 colon) [µM],GI50 (HOP-62 NSCLC) [µM],GI50 (IGROV1 ovarian) [µM],GI50 (NCI-H226 lung) [µM],GI50 (U251 CNS) [µM]
CNCC(SC)c1ccc(O)c(O)c1 (stereo not given),> 100 µM,> 100 µM,33.4,38,31.2 µM,43.7 µM,> 100 µM,> 100,> 100,> 100 µM,–,–,–,–,–,–,–,–,–
COc1ccc(C2C3=C(COC3=O)Oc3cc4c(cc32)OCO4)cc1OC (stereo not given),8.18 µM,> 100 µM,> 100,> 100,4.85 µM,> 86.1 µM,> 96.9 µM,> 100,> 100,> 100 µM,–,–,–,–,–,–,–,–,–
COC(=O)c1c(CC(=O)OC(C)C)cc2n(c1=O)Cc1c-2nc2ccccc2c1OC,> 100 µM,> 100 µM,> 100,> 100,> 100 µM,> 100 µM,> 100 µM,> 100,> 100,> 100 µM,–,–,–,–,–,–,–,–,–
C[C@H](CCc1nc(C#N)c(N)o1)[C@H]1CC[C@H]2[C@@H]3CCC4C[C@@H](O)CC[C@]4(C)[C@H]3C[C@@H](O)[C@]12C (stereo not given in full),36.6 µM,23 µM,28.6,28.4,31.2 µM,26.4 µM,40.8 µM,25.6,25.1,26.5 µM,–,–,–,–,–,–,–,–,–
CC1(C)Cc2ccccc2C(C)(Cl)C(=O)N1 (stereo not given),> 10 µM,> 10 µM,> 10,> 10,> 10 µM,> 10 µM,> 10 µM,> 10,> 10,> 10 µM,–,–,–,–,–,–,–,–,–
C[C@]12CC[C@H]3[C@@H](CC=C4C[C@@H](O)CC[C@@]43C)[C@@H]1C/C(=C\c1ccc([N+](=O)[O-])cc1)[C@@H]2O,42.4 µM,25.1 µM,24.4,36.8,30.4 µM,14 µM,27.7 µM,> 100,55.2,–,–,–,–,–,–,–,–,–,–
COC1(C)CCC(OS(C)(=O)=O)CO1 (stereo not given),> 100 µM,> 100 µM,> 100,> 100,> 100 µM,> 100 µM,> 100 µM,> 100,> 100,> 100 µM,–,–,–,–,–,–,–,–,–
CC(Cl)(CCC(Cl)C(C)(C)Cl)C(=O)CBr (stereo not given),31.1 µM,43 µM,20.9,27.8,30.9 µM,18.2 µM,32.5 µM,26.7,33.7,29.8 µM,–,–,–,–,–,–,–,–,–
COC(=O)CCCc1nc2ccccc2nc1N=Nc1ccccc1,> 100 µM,> 100 µM,> 100,> 100,> 100 µM,> 100 µM,> 100 µM,> 100,> 100,> 100 µM,–,–,–,–,–,–,–,–,–
CCOC(=O)C1=C(N2CCCC2)C(=O)C(C(=O)OCC)C1 (stereo not given),> 100 µM,> 100 µM,> 100,> 100,> 100 µM,> 100 µM,> 100 µM,> 100,> 100,> 100 µM,–,–,–,–,–,–,–,–,–
CC(C)=CC(=O)OC1C2C(C)=CC(=O)C(O)C2(C)C2C3(O)OCC24C(CC(=O)OC14)C(C)C3O (stereo not given),0.288 µM and 0.511 µM,0.598 µM and 1.55 µM and 2.22 µM,0.443,–,0.0532 µM and 0.0278 µM and 0.0513 µM,0.0172 µM and 0.0807 µM,0.0504 µM and 0.0103 µM and 0.0948 µM,–,–,0.0192 µM and 0.0314 µM,0.142,0.0545 µM and 0.178 µM,0.245 µM and 1.13 µM and 0.293 µM,0.0229,0.02,0.0315,0.02,0.02,0.02
COC(=O)[C@@H]1C=CCN1S(=O)(=O)c1ccc(C)cc1,> 100 µM,> 100 µM,> 100,57.8,> 100 µM,> 100 µM,> 100 µM,> 100,> 100,> 100 µM,–,–,–,–,–,–,–,–,–
CC1=NN(c2ccccc2)C(=O)/C1=C\c1c(C)[nH]n(-c2ccccc2)c1=O,> 100 µM,> 100 µM,> 100,> 100,> 100 µM,> 100 µM,> 100 µM,> 100,> 100,> 100 µM,–,–,–,–,–,–,–,–,–
Cc1cccc(NC(=S)Nc2cccc(Cl)c2)n1,> 100 µM,> 100 µM,> 100,> 100,> 100 µM,> 100 µM,> 100 µM,> 100,> 100,> 100 µM,–,–,–,–,–,–,–,–,–
C[C@H](NC(=O)C(C)(Cc1ccc(O)cn1)NC(=O)c1ccccc1)c1ccccc1 (stereo not given in full),> 100 µM,> 100 µM,> 100,> 100,> 100 µM,> 100 µM,> 100 µM,> 100,> 100,> 100 µM,–,–,–,–,–,–,–,–,–
COC1OC(C)/C(=N/O)C2OC(C)(C)OC12 (stereo not given),> 100 µM,> 100 µM,> 100,> 100,> 100 µM,> 100 µM,> 100 µM,> 100,> 100,> 100 µM,–,–,–,–,–,–,–,–,–
CCOP(=O)(OCC)C(c1ccccc1)N(C(=O)NC(F)(F)F)c1ccc(C)cc1 (stereo not given),> 100 µM,> 100 µM,> 100,> 100,> 100 µM,> 100 µM,> 100 µM,> 100,> 100,> 100 µM,–,–,–,–,–,–,–,–,–
